Here are results for 11 compounds from US9409915B2, “Substituted aza-bicyclic imidazole derivatives useful as TRPM8 receptor modulators” (Janssen Pharmaceutica NV, priority 2010, dated 2016).

The target of the assay is canine TRPM8 (Canis lupus familiaris, UniProt Q1A7N1). Kind of assay: In vitro canine TRPM8 functional assay (Ca2+-sensitive fluorescent dye, icilin activation). In kind it is cell-based.
[1] abbreviates: 0.2 μM compound, HEK293 cells stably expressing canine TRPM8, icilin-induced Ca2+ response.
Where [2] appears, read: HEK293 cells stably expressing canine TRPM8, icilin-induced Ca2+ response, eight-point concentration-response.

Counter-ions that a name gives are not always drawn. Like-named read-outs stand apart in the source and are kept apart here.

Chain of canine TRPM8 (Q1A7N1 1-1104): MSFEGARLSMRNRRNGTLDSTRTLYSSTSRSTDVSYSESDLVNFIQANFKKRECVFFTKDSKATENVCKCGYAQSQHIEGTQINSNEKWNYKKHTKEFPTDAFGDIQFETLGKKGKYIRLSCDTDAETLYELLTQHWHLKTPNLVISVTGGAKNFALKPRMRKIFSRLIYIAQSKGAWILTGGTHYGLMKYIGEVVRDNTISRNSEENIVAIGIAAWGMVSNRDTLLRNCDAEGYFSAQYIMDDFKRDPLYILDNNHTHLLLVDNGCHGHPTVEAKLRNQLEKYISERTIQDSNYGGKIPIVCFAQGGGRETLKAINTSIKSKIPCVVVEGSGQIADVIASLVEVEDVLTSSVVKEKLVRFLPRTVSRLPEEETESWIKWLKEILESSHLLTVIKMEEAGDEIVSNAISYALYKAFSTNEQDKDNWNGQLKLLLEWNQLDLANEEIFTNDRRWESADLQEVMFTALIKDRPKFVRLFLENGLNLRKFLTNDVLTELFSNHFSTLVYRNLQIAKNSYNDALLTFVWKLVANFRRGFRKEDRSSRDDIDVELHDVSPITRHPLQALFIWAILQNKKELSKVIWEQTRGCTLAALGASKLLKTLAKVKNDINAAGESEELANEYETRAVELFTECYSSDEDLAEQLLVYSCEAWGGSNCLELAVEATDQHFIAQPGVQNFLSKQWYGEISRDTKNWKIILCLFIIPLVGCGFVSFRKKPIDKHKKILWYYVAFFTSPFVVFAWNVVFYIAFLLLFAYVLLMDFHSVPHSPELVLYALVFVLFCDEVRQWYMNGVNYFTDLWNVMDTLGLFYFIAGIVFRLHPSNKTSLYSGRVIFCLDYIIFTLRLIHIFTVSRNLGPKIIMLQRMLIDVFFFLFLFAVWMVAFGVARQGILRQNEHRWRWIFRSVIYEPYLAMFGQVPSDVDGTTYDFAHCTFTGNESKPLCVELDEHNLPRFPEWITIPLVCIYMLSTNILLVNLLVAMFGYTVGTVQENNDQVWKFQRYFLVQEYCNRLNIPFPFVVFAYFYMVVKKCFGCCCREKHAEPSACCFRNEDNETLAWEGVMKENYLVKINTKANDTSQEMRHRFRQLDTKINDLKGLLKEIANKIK

Take `Cl.Cn1nc(C(C)(C)C)cc1-c1nc2cc(-c3ccccc3C(F)(F)F)ncc2[nH]1` [Compound 40, 2-(5-tert-Butyl-2-methyl-2H-pyrazol-3-yl)-6-(2-trifluoromethyl-phenyl)-3H-imidazo[4,5c]pyridine hydrochloride]: the “% Inh @ 0.2 μM” value stood at 86% and the half-maximal inhibitory concentration (IC50) was 59 nM.

Turning to `Cn1nc(C(C)(C)C)c(Cl)c1-c1nc2cc(-c3ccccc3C(F)(F)F)nc(OCCO)c2[nH]1` [Compound 57, 2-[2-(5-tert-Butyl-4-chloro-2-methyl-2H-pyrazol-3-yl)-6-(2-trifluoromethyl-phenyl)-3H-imidazo[4,5-c]pyridin-4-yloxy]-ethanol], under setting [1], the inhibition at 0.2 µM is 101%. Under setting [2], this compound returned an IC50 of 1.6 nM.

For `Cn1nc(C(C)(C)C)c(Cl)c1-c1nc2cc(-c3ccccc3C(F)(F)F)nc(OCC(F)(F)F)c2[nH]1` [Compound 19, 2-(5-tert-Butyl-4-chloro-2-methyl-2H-pyrazol-3-yl)-4-(2,2,2-trifluoroethoxy)-6-(2-trifluoromethyl-phenyl)-3H-imidazo[4,5-c]pyridine methanesulfonic acid salt], under setting [1], the inhibition at 0.2 µM amounted to 100%. Under setting [2], half-maximal inhibition (IC50) required 0.84 nM. For the compound `Cn1nc(C(C)(C)C)cc1-c1nc2nc(-c3ccccc3F)ccc2[nH]1` [Compound 36, 2-(5-tert-Butyl-2-methyl-2H-pyrazol-3-yl)-5-(2-fluoro-phenyl)-1H-imidazo[4,5-b]pyridine], the inhibition at 0.2 µM under setting [1] stood at 26%.

In the case of `Cn1nc(C(C)(C)C)c(Cl)c1-c1nc2cc(-c3ccccc3C(F)(F)F)nc(OCCN3CCOCC3)c2[nH]1` [Compound 49, 2-(5-tert-Butyl-4-chloro-2-methyl-2H-pyrazol-3-yl)-4-(2-morpholin-4-yl-ethoxy)-6-(2-trifluoromethyl-phenyl)-3H-imidazo[4,5-c]pyridine], the inhibition at 0.2 µM under setting [1] stood at 100%. The compound further showed a 50% inhibitory concentration (IC50) under setting [2] of 6.4 nM. Consider `Cn1nc(C(C)(C)C)c(Cl)c1-c1nc2cc(-c3ccccc3Cl)nc(OCCO)c2[nH]1` [Compound 58, 2-[2-(5-tert-Butyl-4-chloro-2-methyl-2H-pyrazol-3-yl)-6-(2-chloro-phenyl)-3H-imidazo[4,5-c]pyridin-4-yloxy]-ethanol], for which the inhibition at 0.2 µM under setting [1] was found to be 101%. The half-inhibitory concentration (IC50) under setting [2] was 2 nM. For `Cn1nc(C(C)(C)C)c(C#N)c1-c1nc2cc(-c3ccccc3C(F)(F)F)nc(OCCO)c2[nH]1` [Compound 84, 3-tert-Butyl-5-[4-(2-hydroxy-ethoxy)-6-(2-trifluoromethyl-phenyl)-3H-imidazo[4,5-c]pyridin-2-yl]-1-methyl-1H-pyrazole-4-carbonitrile], the inhibition at 0.2 µM under setting [1] is 100%. This compound also showed an IC50 under setting [2] of 1.9 nM. With `COc1nc(-c2ccccc2C(F)(F)F)cc2nc(-c3c(F)c(C(C)(C)C)nn3C)[nH]c12` [Compound 78, 2-(5-tert-Butyl-4-fluoro-2-methyl-2H-pyrazol-3-yl)-4-methoxy-6-(2-trifluoromethyl-phenyl)-3H-imidazo[4,5-c]pyridine methanesulfonic acid salt], the inhibition at 0.2 µM under setting [1] was found to be 100%. The same compound gave an IC50 under setting [2] of 16 nM. `Cn1nc(C(C)(C)C)c(Cl)c1-c1nc2nc(-c3ccccc3Cl)cnc2[nH]1` [Compound 110]: under setting [1], the “% Inh @ 0.2 μM” value was 99%. For the same compound, the concentration for half-maximal inhibition (IC50) under setting [2] was 24 nM. Take `Cl.Cn1nc(C(C)(C)C)c(Cl)c1-c1nc2cc(-c3ccccc3F)ncc2[nH]1` [Compound 48, 2-(5-tert-Butyl-4-chloro-2-methyl-2H-pyrazol-3-yl)-6-(2-fluoro-phenyl)-3H-imidazo[4,5-c]pyridine hydrochloride]: the “% Inh @ 0.2 μM” value (0.2 μM compound, HEK293 cells stably expressing canine TRPM8, icilin-induced Ca2+ response, hydrochloride) was 59%. `Cn1nc(C(C)(C)C)cc1-c1nc2cc(-c3ccccc3OC(F)(F)F)ncc2[nH]1` [Compound 39, 2-(5-tert-Butyl-2-methyl-2H-pyrazol-3-yl)-6-(2-trifluoromethoxy-phenyl)-3H-imidazo[4,5-c]pyridine hydrochloride]: the inhibition at 0.2 µM (HEK293, 0.2 μM compound, HEK293 cells stably expressing canine TRPM8, icilin-induced Ca2+ response) amounted to 69%. Further, under setting [2], the half-maximal inhibitory concentration (IC50) was 75 nM.

Broadly, the IC50 is the concentration that inhibits the measured activity by half. A higher IC50 goes with weaker potency. For orientation: inhibition means the change of the read-out against control, counted positive when it falls.
